Results taken from ChEMBL document CHEMBL2034905, “Synthesis of benzimidazolyl-1,3,4-oxadiazol-2ylthio-N-phenyl (benzothiazolyl) acetamides as antibacterial, antifungal and antituberculosis agents” (Eur J Med Chem, 2012).
≈ marks a conversion by molar mass, not a printed value.

Columns and labels:
[1] = tested on: Aspergillus fumigatus; experiment: Antifungal activity against Aspergillus fumigatus MTCC 343 at 100 ug/disc by paper disc diffusion technique; assay type: functional; conditions: read-out: IZ
[2] = tested on: Candida albicans; experiment: Antifungal activity against Candida albicans MTCC 183 at 100 ug/disc by paper disc diffusion technique; assay type: functional; conditions: read-out: IZ
[3] = tested on: Pseudomonas aeruginosa; experiment: Antibacterial activity against Pseudomonas aeruginosa MTCC 741 by agar streak dilution method; assay type: functional
[4] = tested on: Proteus vulgaris; experiment: Antibacterial activity against Proteus vulgaris MTCC 1771 at 100 ug/disc by paper disc diffusion technique; assay type: functional; conditions: read-out: IZ
[5] = tested on: Mycobacterium tuberculosis; experiment: Antituberculosis activity against Mycobacterium tuberculosis H37Rv by BACTEC MGIT method; assay type: functional
[6] = tested on: Klebsiella pneumoniae; experiment: Antibacterial activity against Klebsiella pneumoniae MTCC 109 by agar streak dilution method; assay type: functional
[7] = tested on: Escherichia coli; experiment: Antibacterial activity against Escherichia coli MTCC 739 by agar streak dilution method; assay type: functional
[8] = tested on: Staphylococcus aureus; experiment: Antibacterial activity against Staphylococcus aureus MTCC 96 by agar streak dilution method; assay type: functional
[9] = tested on: Aspergillus niger; experiment: Antifungal activity against Aspergillus niger MTCC 282 at 100 ug/disc by paper disc diffusion technique; assay type: functional; conditions: read-out: IZ
[10] = tested on: Candida albicans; experiment: Antifungal activity against Candida albicans MTCC 183 by agar streak dilution method; assay type: functional
[11] = tested on: Mycobacterium tuberculosis; experiment: Antituberculosis activity against Mycobacterium tuberculosis H37Rv at 6.25 ug/ml by Lowenstein-Jensen method; assay type: functional
[12] = tested on: Salmonella typhi; experiment: Antibacterial activity against Salmonella typhi MTCC 733 at 100 ug/disc by paper disc diffusion technique; assay type: functional, Salmonella enterica subsp. enterica serovar Typhi; conditions: Salmonella enterica, read-out: IZ
[13] = tested on: Proteus vulgaris; experiment: Antibacterial activity against Proteus vulgaris MTCC 1771 by agar streak dilution method; assay type: functional
[14] = tested on: Aspergillus fumigatus; experiment: Antifungal activity against Aspergillus fumigatus MTCC 343 by agar streak dilution method; assay type: functional
[15] = tested on: Aspergillus clavatus; experiment: Antifungal activity against Aspergillus clavatus MTCC 1323 by agar streak dilution method; assay type: functional
[16] = tested on: Shigella flexneri; experiment: Antibacterial activity against Shigella flexneri MTCC 1457 at 100 ug/disc by paper disc diffusion technique; assay type: functional; conditions: read-out: IZ
[17] = tested on: Bacillus cereus; experiment: Antibacterial activity against Bacillus cereus MTCC 430 by agar streak dilution method; assay type: functional
[18] = tested on: Klebsiella pneumoniae; experiment: Antibacterial activity against Klebsiella pneumoniae MTCC 109 at 100 ug/disc by paper disc diffusion technique; assay type: functional; conditions: read-out: IZ
[19] = tested on: Staphylococcus aureus; experiment: Antibacterial activity against Staphylococcus aureus MTCC 96 at 100 ug/disc by paper disc diffusion technique; assay type: functional; conditions: read-out: IZ
[20] = tested on: Escherichia coli; experiment: Antibacterial activity against Escherichia coli MTCC 739 at 100 ug/disc by paper disc diffusion technique; assay type: functional; conditions: read-out: IZ
[21] = Lipophilicity, log P of the compound; assay type: physicochemical; conditions: octanol/water
[22] = tested on: Aspergillus clavatus; experiment: Antifungal activity against Aspergillus clavatus MTCC 1323 at 100 ug/disc by paper disc diffusion technique; assay type: functional; conditions: read-out: IZ
[23] = tested on: Aspergillus niger; experiment: Antifungal activity against Aspergillus niger MTCC 282 by agar streak dilution method; assay type: functional
[24] = tested on: Salmonella typhi; experiment: Antibacterial activity against Salmonella typhi MTCC 733 by agar streak dilution method; assay type: functional, Salmonella enterica subsp. enterica serovar Typhi; conditions: Salmonella enterica
[25] = tested on: Mycobacterium tuberculosis; experiment: Antituberculosis activity against Mycobacterium tuberculosis H37Rv by Lowenstein-Jensen method; assay type: functional
[26] = tested on: Shigella flexneri; experiment: Antibacterial activity against Shigella flexneri MTCC 1457 by agar streak dilution method; assay type: functional
[27] = tested on: Pseudomonas aeruginosa; experiment: Antibacterial activity against Pseudomonas aeruginosa MTCC 741 at 100 ug/disc by paper disc diffusion technique; assay type: functional; conditions: read-out: IZ
[28] = tested on: Bacillus cereus; experiment: Antibacterial activity against Bacillus cereus MTCC 430 at 100 ug/disc by paper disc diffusion technique; assay type: functional; conditions: read-out: IZ

Compound	zone of inhibition at 100 µg/disc [1] [mm]	zone of inhibition at 100 µg/disc [2] [mm]	MIC [3] [µg/mL]	zone of inhibition at 100 µg/disc [4] [mm]	MIC [5] [µg/mL]	MIC [6] [µg/mL]	MIC [7] [µg/mL]	MIC [8] [µg/mL]	zone of inhibition at 100 µg/disc [9] [mm]	MIC [10] [µg/mL]	inhibition at 6.25 µg/mL [11] [%]	zone of inhibition at 100 µg/disc [12] [mm]	MIC [13] [µg/mL]	MIC [14] [µg/mL]	MIC [15] [µg/mL]	zone of inhibition at 100 µg/disc [16] [mm]	MIC [17] [µg/mL]	zone of inhibition at 100 µg/disc [18] [mm]	zone of inhibition at 100 µg/disc [19] [mm]	zone of inhibition at 100 µg/disc [20] [mm]	other results
CCOc1ccc2nc(NC(=O)CSc3nnc(Cn4cnc5ccccc54)o3)sc2c1	13	26	50 (≈ 107 µM)	26	> 6.25	50 (≈ 107 µM)	25 (≈ 53.6 µM)	12.5 (≈ 26.8 µM)	20	25 (≈ 53.6 µM)	99	19	12.5 (≈ 26.8 µM)	100 (≈ 214 µM)	100 (≈ 214 µM)	19	50 (≈ 107 µM)	21	22	24	logP [21]: 3.9; zone of inhibition at 100 µg/disc [22]: 17 mm; MIC [23]: 25 µg/mL (≈ 53.6 µM); MIC [24]: 50 µg/mL (≈ 107 µM); MIC [25]: 50 µg/mL (≈ 107 µM); MIC [26]: 50 µg/mL (≈ 107 µM); zone of inhibition at 100 µg/disc [27]: 18 mm; zone of inhibition at 100 µg/disc [28]: 21 mm
O=C(CSc1nnc(Cn2cnc3ccccc32)o1)Nc1nc2ccc(Cl)cc2s1	13	14	25 (≈ 54.7 µM)	20	> 6.25	50 (≈ 109 µM)	50 (≈ 109 µM)	12.5 (≈ 27.4 µM)	16	100 (≈ 219 µM)	97	22	50 (≈ 109 µM)	100 (≈ 219 µM)	100 (≈ 219 µM)	25	6.25 (≈ 13.7 µM)	20	22	20	logP [21]: 4.25; zone of inhibition at 100 µg/disc [22]: 15 mm; MIC [23]: 100 µg/mL (≈ 219 µM); MIC [24]: 50 µg/mL (≈ 109 µM); MIC [25]: 62.5 µg/mL (≈ 137 µM); MIC [26]: 6.25 µg/mL (≈ 13.7 µM); zone of inhibition at 100 µg/disc [27]: 23 mm; zone of inhibition at 100 µg/disc [28]: 27 mm
Cc1ccc2nc(NC(=O)CSc3nnc(Cn4cnc5ccccc54)o3)sc2c1	< 10	15	100 (≈ 229 µM)	20	> 6.25	100 (≈ 229 µM)	100 (≈ 229 µM)	50 (≈ 115 µM)	12	100 (≈ 229 µM)	97	11	50 (≈ 115 µM)	100 (≈ 229 µM)	100 (≈ 229 µM)	14	50 (≈ 115 µM)	18	15	12	logP [21]: 4.18; zone of inhibition at 100 µg/disc [22]: 12 mm; MIC [23]: 100 µg/mL (≈ 229 µM); MIC [24]: 100 µg/mL (≈ 229 µM); MIC [25]: 200 µg/mL (≈ 458 µM); MIC [26]: 100 µg/mL (≈ 229 µM); zone of inhibition at 100 µg/disc [27]: 15 mm; zone of inhibition at 100 µg/disc [28]: 19 mm
